One experiment addresses T1, CDK2/Cyclin E (Homo sapiens, UniProt P24941).
T1 construct: purchased Eurofins 14-475
The experiment is described as follows: Biochemical CDK inhibition assay (Caliper mobility shift), CDK2/Cyclin E. Conditions: read-out: CDK2/cyclin E1 IC50. The protocol: (§1) Inhibitory effects of the compounds of the disclosure were measured in biochemical assays that measure the enzymatic phosphorylation activity of CDK enzyme in complex of Cyclin proteins phosphorylates 7.5 micromolar fluorescently labelled peptide substrate, 5-FAM-QSPKKG-CONH2, (FL-Peptide 18, Perkin Elmer, 760362) in the presence of adenosine-5′-triphosphate (ATP) and varying concentrations of the test compound in 100 mM 2-[4-(2-hydroxyethyl)piperazin-1-yl] ethanesulfonic acid (HEPES), pH 7.5, 10 mM MgCl2, 0.015% Brij-35, 1 mM dithiothreitol (DTT), 1.0% dimehylsulfoxide (DMSO). […] Reactions proceeded until between 10% to 20% total peptides were phosphorylated at room temperature (25° C.) and were terminated with 35 mM 2,2′,2″,2′″-(ethane-1,2-diyldinitrilo)tetraacetic acid (EDTA). Product was detected using the Caliper mobility shift detection method where the phosphorylated peptide (product) and substrate were electrophoretically separated and measured. Percent activity was plotted against log concentration of compound and points to generate an apparent IC50. The following CDK enzymes in complex with different cyclin proteins were used in these assays: • CDK1/Cyclin B1, GST-tag (BPS, 40454), 1.5 nM used in the assay • CDK2/Cyclin E (Eurofins, 14-475), 1.25 nM used in the assays
(§2) For inhibitory activity against CDK2/Cyclin E mutant, the following designations are used: ≤10 nM=A; >10-20 nM=B; >20-30 nM=C; >30-100 nM=D and >100=E. For inhibition CDK1/Cyclin B1, GST-tag: ≥500 nM=A; <100-500 nM=B; <100 nM=C.

In another experiment the target is T2, CDK1/Cyclin B1, GST-tag (Homo sapiens, UniProt P06493).
T2 construct: GST; purchased BPS 40454
The experiment is described as follows: Biochemical CDK inhibition assay (Caliper mobility shift), CDK1/Cyclin B1. The protocol:
as §1, §2

Experimental findings from patent publication US12668585B2, “Substituted pyrimidinyl-pyrazoles as CDK2 inhibitors” (BLUEPRINT MEDICINES CORPORATION, priority 2021, dated 2026) are described below.

SMILES strings stand for the structures.

T2 sequence (P06493 whole entry): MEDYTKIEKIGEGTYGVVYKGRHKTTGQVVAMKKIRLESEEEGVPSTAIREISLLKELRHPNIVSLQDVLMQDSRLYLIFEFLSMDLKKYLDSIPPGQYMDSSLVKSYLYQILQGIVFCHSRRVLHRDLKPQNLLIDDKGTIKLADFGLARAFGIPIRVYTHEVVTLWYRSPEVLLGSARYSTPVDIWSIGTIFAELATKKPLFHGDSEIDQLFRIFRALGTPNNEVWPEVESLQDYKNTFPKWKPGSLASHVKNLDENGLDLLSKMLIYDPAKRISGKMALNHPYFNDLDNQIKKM
T2 sequence (P14635 whole entry partner): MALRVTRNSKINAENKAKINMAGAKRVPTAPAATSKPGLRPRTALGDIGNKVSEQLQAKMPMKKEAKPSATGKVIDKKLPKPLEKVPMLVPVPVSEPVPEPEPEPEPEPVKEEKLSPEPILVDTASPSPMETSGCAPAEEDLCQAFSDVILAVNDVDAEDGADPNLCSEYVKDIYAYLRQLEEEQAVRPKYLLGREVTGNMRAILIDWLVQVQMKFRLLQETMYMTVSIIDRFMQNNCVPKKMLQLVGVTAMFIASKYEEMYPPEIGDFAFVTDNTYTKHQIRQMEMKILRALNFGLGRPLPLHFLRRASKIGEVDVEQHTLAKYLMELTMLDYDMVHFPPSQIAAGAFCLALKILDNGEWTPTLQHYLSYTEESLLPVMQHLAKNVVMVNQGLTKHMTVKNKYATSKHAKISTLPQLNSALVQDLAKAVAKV

Consider `CCc1cnc(Nc2ccc(S(N)(=O)=O)cc2F)nc1-c1cnn(CC(C)(C)O)c1` [Example 42, 4-((5-ethyl-4-(1-(2-hydroxy-2-methylpropyl)-1H-pyrazol-4-yl)pyrimidin-2-yl)amino)-3-fluorobenzenesulfonamide], for which the IC50 at CDK2/Cyclin E was 20 to 30 nM; on CDK1/Cyclin B1, GST-tag, not below 500 nM.

`COc1cc(S(N)(=O)=O)ccc1Nc1ncc(C(F)(F)F)c(-c2cnn(CC(C)(C)O)c2)n1` [Example 27, 4-((4-(1-(2-hydroxy-2-methylpropyl)-1H-pyrazol-4-yl)-5-(trifluoromethyl)pyrimidin-2-yl)amino)-3-methoxybenzenesulfonamide]: the IC50 on CDK2/Cyclin E is not above 10 nM; at CDK1/Cyclin B1, GST-tag it was 100 to 500 nM.

Consider `C[C@@H](n1cc(-c2nc(Nc3ccc(S(N)(=O)=O)cc3F)ncc2C(F)(F)F)cn1)C(C)(C)O` (single isomer, unassigned) [Example 7, (R)-3-fluoro-4-((4-(1-(3-hydroxy-3-methylbutan-2-yl)-1H-pyrazol-4-yl)-5-(trifluoromethyl)pyrimidin-2-yl)amino)benzenesulfonamide or (S)-3-fluoro-4-((4-(1-(3-hydroxy-3-methylbutan-2-yl)-1H-pyrazol-4-yl)-5-(trifluoromethyl)pyrimidin-2-yl)amino)benzenesulfonamide], for which the IC50 at CDK2/Cyclin E was not above 10 nM; at CDK1/Cyclin B1, GST-tag, 100 to 500 nM.

For the compound `CC(C)(O)Cn1cc(-c2nc(Nc3ccc(S(N)(=O)=O)cc3)ncc2C(F)(F)F)cn1` [Example 5, 4-((4-(1-(2-hydroxy-2-methylpropyl)-1H-pyrazol-4-yl)-5-(trifluoromethyl)pyrimidin-2-yl)amino)benzenesulfonamide], the IC50 was not above 10 nM on CDK2/Cyclin E and less than 100 nM at CDK1/Cyclin B1, GST-tag.

As to `N#Cc1cnc(Nc2ccc(S(N)(=O)=O)cc2)nc1-c1cnn(C2COC2)c1` [Example 39, 4-((5-cyano-4-(1-(oxetan-3-yl)-1H-pyrazol-4-yl)pyrimidin-2-yl)amino)benzenesulfonamide], the IC50 on CDK2/Cyclin E was 10 to 20 nM; at CDK1/Cyclin B1, GST-tag, not below 500 nM.
